From ChEMBL document CHEMBL1135124, “Novel bicyclic oxazolone derivatives as anti-angiogenic agents” (Bioorg Med Chem Lett, 2002) come the findings set out here.

The test system of one experiment is A-431. As to the kind of experiment: Inhibitory activity against proliferation of human epidermoid carcinoma (A431) cells. The format is functional, cell-based.
A further experiment is filed under the species Gallus gallus. Description: Anti-angiogenic activity was assessed by inhibition of the vascular growth in the chick embryo chorioallantoic membrane (CAM assay) at 125 nM. Type of experiment: functional, tissue-based.
Another experiment deals with L1210. Description: Inhibitory activity against proliferation of murine leukemia (L1210) cells. The settings on record: Mus musculus. The format is functional, cell-based.

`CCCCCC#C[C@@]1(C)O[C@@H]2OC(=O)N(C(=O)CCl)[C@@H]2CC1=O`: the IC50 was found to be 47 µM with A-431 and 31 µM in the experiment with L1210. The molecule also registered an inhibition in the experiment filed under Gallus gallus of 70%.

Take `CO[C@@H]1[C@H](OC(=O)/C=C/C=C/C=C/C=C/C(=O)O)CC[C@]2(CO2)[C@H]1[C@@]1(C)O[C@@H]1CC=C(C)C` [FUMAGILLIN]: the IC50 in the experiment on A-431 turned out to be 5 µM; in the experiment on L1210 it was 8 µM. This molecule displayed an inhibition in the experiment listed under Gallus gallus of 85%.

For `CCCCCC#C[C@]1(C)O[C@@H]2OC(=O)N(C(=O)CCl)[C@@H]2CC1=O`, the half-inhibitory concentration (IC50) in the experiment with A-431 was determined as 5 µM; in the experiment with L1210 it was 32 µM. The molecule further gave an inhibition in the experiment listed under Gallus gallus of 50%.

Turning to `CCCCCC#C[C@@]1(C)O[C@@H]2OC(=O)N(C(=O)CCl)[C@@H]2C[C@@H]1O`, the IC50 with A-431 is 52 µM; in the experiment with L1210 it was over 100 µM. Besides, the inhibition in the experiment listed under Gallus gallus came out at 40%.

`CCCCCC1OC1[C@@]1(C)O[C@@H]2OC(=O)N(C(=O)CCl)[C@@H]2CC1=O` (stereo partly drawn): the IC50 with A-431 worked out at 116 µM; with L1210, 193 µM. The molecule also displayed an inhibition in the experiment filed under Gallus gallus of 58%.

In the case of `CCCCCCC[C@@]1(C)O[C@@H]2OC(=O)N(C(=O)CCl)[C@@H]2CC1=O`, the concentration for half-maximal inhibition (IC50) turned out to be 78 µM with A-431 and 28 µM with L1210. Moreover, the inhibition in the experiment listed under Gallus gallus worked out at 60%.

As for `CCCCCCC[C@H]1O[C@@H]2OC(=O)N(C(=O)CCl)[C@@H]2CC1=O`, the half-inhibitory concentration (IC50) with A-431 came out at 79 µM; in the experiment on L1210, 96 µM. The molecule also yielded an inhibition in the experiment filed under Gallus gallus of 87%.

As to `CCCCCC1OC1[C@@]1(C)O[C@@H]2OC(=O)N(C(=O)CCl)[C@@H]2C[C@]12CO2` (stereo partly drawn), the concentration for half-maximal inhibition (IC50) is 33 µM in the experiment with A-431 and 22 µM with L1210. In the experiment listed under Gallus gallus, this molecule came in with an inhibition of 19%.

In the case of `CCCCCC#C[C@@]1(C)O[C@@H]2OC(=O)N(C(=O)CCl)[C@@H]2C[C@H]1O`, the results for the IC50 in the experiment on A-431 and in the experiment on L1210 were 75 µM and over 100 µM, respectively. For the same molecule, the inhibition in the experiment filed under Gallus gallus was 25%.

Turning to `COC#C[C@@]1(C)O[C@@H]2OC(=O)N(C(=O)CCl)[C@@H]2CC1=O`, the 50% inhibitory concentration (IC50) was found to be 64 µM in the experiment on A-431 and 74 µM in the experiment on L1210. For the same molecule, the inhibition in the experiment listed under Gallus gallus amounted to 60%.

As to `CCCCCC1OC1[C@@]1(C)O[C@@H]2OC(=O)N(C(=O)CCl)[C@@H]2C[C@@]12CO2` (stereo partly drawn), the IC50 in the experiment on A-431 is 93 µM; with L1210 it was 89 µM.

Consider `CCCCC/C=C/[C@@]1(C)O[C@@H]2OC(=O)N(C(=O)CCl)[C@@H]2CC1=O`, for which the 50% inhibitory concentration (IC50) in the experiment on A-431 and in the experiment with L1210 was 81 µM each time. This molecule also returned an inhibition in the experiment listed under Gallus gallus of 50%.

With `C[C@]1(C#CCCCCc2ccccc2)O[C@@H]2OC(=O)N(C(=O)CCl)[C@@H]2CC1=O`, the IC50 was 56 µM with A-431 and 27 µM in the experiment on L1210. This molecule also came in with an inhibition in the experiment filed under Gallus gallus of 60%.

Usually IC50 stands for the point on the concentration scale where inhibition reaches its midpoint. One may read the inhibition as the share of the control response that was lost under treatment. Lower therefore signals a response near the control.
